According to paper PMC11320734 (ACS Pharmacology & Translational Science, 2024):
≈ marks a conversion by molar mass, not a printed value. Where two headings read alike, the source gives them in different places.

Experiments:
[1] = tested on: renal I/R-induced acute kidney injury; experiment: Ischemia/reperfusion (I/R) model of acute kidney injury; type: in vivo, C57BL/6 mice
Method: In the ischemia/reperfusion (I/R) model of acute kidney injury (AKI),[47],[48] the compounds were administered orally by gavage to C57BL/6 mice 30 min before ischemia obtained by clamping both renal arteries and veins for 25 min, followed by 24 h of reperfusion. Mice were anesthetized using xylazine (10 mg kg^–1)/ketamine (100 mg kg^–1) injected intraperitoneally. Sham treated mice were treated identically except for the temporary closure of the renal vessels. After 24 h, under reanesthesia, plasma was taken for biomarker analysis. Thereafter, mice still in deep anesthesia were sacrificed by cervical dislocation. Creatinine, BUN (blood urea nitrogen), NGAL (neutrophil gelatinase-associated lipocalin), osteopontin, and KIM1 (kidney injury molecule-1) levels were determined using the following commercially available standard assays: creatinine: Roche Diagnostics 03263991, BUN: Roche Diagnostics 04460715, NGAL: BioPorto, Kit046 + Kit042, osteopontin: R&D Systems, MOST00, KIM-1: Abnova, KA1064. To assess fibrotic effects, we used the unilateral ureteral obstruction (UOO) model in Sprague–Dawley rats.[49] For the UOO model, rats were sacrificed after 5, 8, and 11 days and the percentage of PicroSirius Red positive areas (indicator of collagen III–I deposition) were measured in 4 μm histological cross sections of the kidney after 2% paraformaldehyde perfusion fixation and paraffin embedding. The extend of kidney fibrosis was quantified based on PicroSirius Red staining of 10 renal sections about 1 mm apart from each kidney. The collagen–III-I-positive pixel counts were determined in the cortical aspect of each kidney section from 10 optical fields using a 40× objective. As the total area analyzed was identical for all kidneys under investigation, the absolute number of pixels was used as the relevant readout. Vehicle treated animals received saline gavage only. The details of PicroSirius Red staining were previously described.[22]

[2] = biological target: hERG channel (Homo sapiens, UniProt Q12809); experiment: hERG inhibition; type: cell-based
[3] = Lyophilization solubility assay (LYSA); type: physicochemical; settings: aqueous buffer, thermodynamic from solid; kinetic, phosphate buffer pH 6.5
Method: For the determination of the octanol/water distribution coefficient (logD), the carrier-mediated distribution system (CAMDIS)-assay was used as described elsewhere.[38] Kinetic and thermodynamic solubilities were assessed using the lyophilization solubility assay (LYSA) and thermodynamic solubility assay (THESA), respectively. For the LYSA, the solubility of RNB- 61 in phosphate buffer at pH 6.5 from an evaporated 10 mM DMSO compound stock solution was measured. Two aliquots of the test compounds were dried and dissolved in phosphate buffer at pH 6.5. The solutions were then filtered and diluted (3 different dilution levels for each compound) before high throughput mass spectrometry (MS) analysis was performed in an Agilent RapidFire system. Each test compound was quantified using a 6-point calibration curve prepared with the same DMSO starting solution. For THESA, RNB-61 (8.6 mg per mL solvent/vehicle) was stirred in HPLC vials (9 × 12 × 32 mm, Waters) at 350 rpm for 15 h. The presence of solid particles was determined by microscopic analysis of 10 μL samples. If the active pharmacological ingredient (API) was completely dissolved, more solid API was added before stirring for another 15 h. This step was repeated for up to 96 h or until residual solid particles could be detected. […] The filtrates were diluted in ethanol and analyzed by ultra-performance liquid chromatography (UPLC). […]

[4] = biological target: human wild type CB2R (Homo sapiens, UniProt P34972); experiment: β-arrestin2 recruitment assay (Pathhunter); type: cell-based; parameters: host or cells: CHO cells (Pathhunter)
[5] = Octanol/water distribution coefficient (logD), CAMDIS assay; type: physicochemical
Method: For the determination of the octanol/water distribution coefficient (logD), the carrier-mediated distribution system (CAMDIS)-assay was used as described elsewhere.[38] Kinetic and thermodynamic solubilities were assessed using the lyophilization solubility assay (LYSA) and thermodynamic solubility assay (THESA), respectively. For the LYSA, the solubility of RNB- 61 in phosphate buffer at pH 6.5 from an evaporated 10 mM DMSO compound stock solution was measured. Two aliquots of the test compounds were dried and dissolved in phosphate buffer at pH 6.5. The solutions were then filtered and diluted (3 different dilution levels for each compound) before high throughput mass spectrometry (MS) analysis was performed in an Agilent RapidFire system. Each test compound was quantified using a 6-point calibration curve prepared with the same DMSO starting solution. For THESA, RNB-61 (8.6 mg per mL solvent/vehicle) was stirred in HPLC vials (9 × 12 × 32 mm, Waters) at 350 rpm for 15 h. The presence of solid particles was determined by microscopic analysis of 10 μL samples. If the active pharmacological ingredient (API) was completely dissolved, more solid API was added before stirring for another 15 h. This step was repeated for up to 96 h or until residual solid particles could be detected. Samples (0.5 mL) were transferred to Eppendorf Ultrafree filter tubes (Filter: PVDF 0.22 μm) and centrifuged at 14,500 rpm for 10 min. The filtrates were diluted in ethanol and analyzed by ultra-performance liquid chromatography (UPLC). Measurements were repeated in 0.05 M aqueous phosphate buffer and in fasted (FaSSIF) and fed (FeSSIF) simulated gastrointestinal fluids.

[6] = 3 mg kg^–1 p.o., 24 h reperfusion
[7] = maximal protection at 3–30 mg kg^–1

human wild type CB2R, sequence (P34972 whole entry): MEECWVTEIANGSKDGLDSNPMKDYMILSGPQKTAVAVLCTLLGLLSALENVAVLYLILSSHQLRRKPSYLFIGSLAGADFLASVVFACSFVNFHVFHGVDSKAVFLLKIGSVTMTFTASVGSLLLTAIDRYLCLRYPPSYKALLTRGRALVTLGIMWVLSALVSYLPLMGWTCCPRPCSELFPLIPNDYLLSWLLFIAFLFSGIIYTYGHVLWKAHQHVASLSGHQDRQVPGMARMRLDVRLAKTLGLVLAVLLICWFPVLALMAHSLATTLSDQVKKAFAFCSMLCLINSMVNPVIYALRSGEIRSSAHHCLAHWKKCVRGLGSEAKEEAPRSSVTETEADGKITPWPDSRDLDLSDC
hERG channel, sequence (Q12809 whole entry): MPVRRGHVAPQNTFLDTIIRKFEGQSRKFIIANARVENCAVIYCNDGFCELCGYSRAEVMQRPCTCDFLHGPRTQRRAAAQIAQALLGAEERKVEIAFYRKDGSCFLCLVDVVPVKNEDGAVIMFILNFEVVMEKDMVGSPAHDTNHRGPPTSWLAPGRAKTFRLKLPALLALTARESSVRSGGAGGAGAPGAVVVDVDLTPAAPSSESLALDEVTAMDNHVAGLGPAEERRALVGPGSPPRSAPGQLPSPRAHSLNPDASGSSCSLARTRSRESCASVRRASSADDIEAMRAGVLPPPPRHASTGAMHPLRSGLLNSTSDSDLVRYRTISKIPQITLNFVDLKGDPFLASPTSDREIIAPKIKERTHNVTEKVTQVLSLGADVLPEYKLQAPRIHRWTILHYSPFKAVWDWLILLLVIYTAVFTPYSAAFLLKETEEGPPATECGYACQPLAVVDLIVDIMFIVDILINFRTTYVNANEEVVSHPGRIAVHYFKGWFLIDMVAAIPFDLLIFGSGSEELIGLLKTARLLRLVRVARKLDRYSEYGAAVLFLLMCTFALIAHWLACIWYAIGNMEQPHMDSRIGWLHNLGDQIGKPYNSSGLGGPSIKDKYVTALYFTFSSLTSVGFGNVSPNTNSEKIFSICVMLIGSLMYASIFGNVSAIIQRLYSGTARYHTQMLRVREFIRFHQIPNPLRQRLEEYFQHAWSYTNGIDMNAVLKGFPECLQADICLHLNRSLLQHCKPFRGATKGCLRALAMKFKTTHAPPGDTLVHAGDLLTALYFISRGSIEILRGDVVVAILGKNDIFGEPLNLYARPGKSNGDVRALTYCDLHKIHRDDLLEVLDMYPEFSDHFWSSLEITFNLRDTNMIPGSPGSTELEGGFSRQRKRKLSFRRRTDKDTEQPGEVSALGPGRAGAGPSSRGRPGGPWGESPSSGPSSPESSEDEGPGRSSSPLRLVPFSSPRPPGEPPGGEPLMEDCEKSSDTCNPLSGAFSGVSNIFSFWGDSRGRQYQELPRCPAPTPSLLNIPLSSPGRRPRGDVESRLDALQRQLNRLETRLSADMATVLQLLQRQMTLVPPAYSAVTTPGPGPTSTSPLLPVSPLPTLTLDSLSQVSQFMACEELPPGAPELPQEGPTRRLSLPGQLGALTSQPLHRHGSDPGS

Cn1c(C(C)(C)C)cc(=NC(=O)c2cc(C(F)(F)F)ccc2OCC(C)(C)O)n1CC1CCC1 [RNB-61]
effect on I/R induced plasma creatinine levels ([1]; 0.1 mg kg^–1): No significant difference
reduction of BUN compared to vehicle [1, 6]: 30%
reduction of plasma creatinine compared to vehicle [1, 6]: 48%
reduction of plasma KIM-1 compared to vehicle [1, 7]: 50%
reduction of plasma NGAL compared to vehicle [1, 7]: 39%
reduction of plasma osteopontin compared to vehicle [1, 7]: 43%
dose from which KIM-1 release is inhibited ([1]; mouse, in vivo): 0.3 mg kg^–1
dose from which NGAL release is inhibited ([1]; mouse, in vivo): 0.3 mg kg^–1
dose from which osteopontin release is inhibited ([1]; mouse, in vivo): 3 mg kg^–1
hERG inhibition [2]: >10 µM
solubility [3]: 194 µg/mL (≈ 403 µM)
EC50 ([4]; Figure 2, normalized to 1 μM CP55940): 0.0133 ± 0.0019 µM
Emax ([4]; percentage normalized to 1 μM CP55940, read-out: Emax β-arrestin2 recruitment): 80%
Emax ([4]; relative to CP55,940, text, read-out: Emax of total β-arrestin2 recruitment): ~80%
logD ([5]; Table 3, read-out: clogP (cell says logD)): 3.34
logD ([5]; octanol/water, read-out: logD): 3.3
